Reference: patent EP2077104A1, “Micellar compositions with ophtalmic applications” (Novagali Pharma S.A., priority 2008, dated 2009)

Assay: Zeta potential of emulsion surface
Format: physicochemical
Settings: 0.002% CKC in emulsion
Text: Thus in preferred embodiments, micellar compositions of the present invention have a positive zeta potential. As known in the art, the zeta potential is a measure of the magnitude of repulsion or attraction between particles (Washington, Adv. Drug Deliv. Reviews, 1996, 20:131-145). The Zeta potential is not measurable directly but it can be calculated using theoretical models and an experimentally-determined electrophoretic mobility or dynamic electrophoretic mobility. As known in the art, electrophoretic mobility can be determined using micro-electrophoresis or electrophoretic light scattering.
All the eye drops were supplied by Novagali Pharma (Evry, France) and were sterile with physiological pH and osmolality. The present Applicants chose to compare 0.02% BAK to 0.002% CKC since these two QAC concentrations confer equivalent positive charge to the emulsion surface (zeta potential around 20 mV).

zeta potential: around 20 mV
SMILES: CCCCCCCCCCCCCCCC[N+](C)(C)Cc1ccccc1 [Cetalkonium chloride, cetalkonium chloride]
